# Laboratory results: patent publication EP1101496A1, “THERAPEUTIC AGENTS FOR ALLERGIC DISEASES” (FUJI YAKUHIN KOGYO KABUSHIKI KAISHA, priority 1998, dated 2000)
# Experiments:
# [1] = Mouse body weight gain (side-effect index); assay type: in vivo, mice; conditions: average ± standard deviation; once a day Days 0-5; Compound No. 8 or 10 60 mg/kg s.c., prednisolone 10 mg/kg i.p.
# Experimental: Next the mice were measured for their body weight.
# [2] = system: IgE-mediated auricle edema; experiment: Auricle edema in experimental atopic dermatitis model (anti-DNP IgE sensitization, DNFB elicitation); assay type: in vivo, Balb/c mice; conditions: Compound Nos. 8 and 10 60 mg/kg s.c., prednisolone 10 mg/kg i.p.
# Experimental: Intravenous injection of an anti-2,4-dinitrophenol (DNP) antibody (anti-DNP Ab, monoclonal IgE Ab; its antibody titer was 1 : 512 to 1 : 1024 by a rat heterologous passive cutaneous anaphylaxis reaction using a Wister rat) into a tail vein of female Balb/c mice (7-week old, body weight: 17 to 20 g, purchased from JAPAN SLC, Inc.) at a dose of […] per animal raised passive sensitization. Twenty four hours post-sensitization, 0.1% 2,4-dinitrofluorobenzene (DNFB; Nacalai Tesque, Inc.) in ethanol was painted onto both sides of a pair of mouse auricles at a dose of 10 µL per each side for elicitation.
# Fresh unsensitized mice were painted with 0.1% DNFB in ethanol onto their ear in the same manner as aforementioned and served as a control group. Not only immediately prior to elicitation but also 1 hour, 5 hours, daily between Days 1 and 14, and on Day 16 post-elicitation, ear thickness was measured using a dial thickness gauge (Peacock Co.). Each degree of auricle edemas was calculated: Auricular Edema (µm)=(Ear Thickness Post-Elicitation, µm) - (Ear Thickness immediately prior to Elicitation, µm) [formula]
# Balb/c mice were passively sensitized with anti-DNP IgE Ab in the same manner as in Example 1. Twenty four hours later, 0.1% DNFB in ethanol was painted onto both sides of a pair of mouse auricles at a dose of 10 µL per each side for elicitation.
# Immediately prior to elicitation, 1 hour and on Day 1 post-elicitation, auricle thickness was measured in the same manner as in Example 1. Each therapeutic efficacy is recorded as a percent inhibition wherein the "auricle edema (untreated group)" is used as a control. Auricle Edema Inhibition (%) = [ 1 -(Auricle Edema (Treated Group))/(Auricle Edema (Untreated Group))] × 100 (%) [formula]
# (§1) Mice were sensitized with anti-DNP IgE Ab and then elicited by painting 0.1% DNFB in ethanol onto both sides of a pair of mouse auricles at a dose of 10 µL per each side 24 hours post-sensitization in the same manner as in Example 1. […] Immediately prior to elicitation, and on Day 7 post-elicitation, auricle thickness was similarly measured. Each therapeutic efficacy is recorded as a percent inhibition wherein the auricle edema in the untreated group is used as a control.
# as §1, with “(untreated group)” for “in the untreated group”
# Mice were sensitized with anti-DNP IgE Ab and then elicited by painting 0.1% DNFB in ethanol onto both sides of a pair of mouse auricles at a dose of 10 µL per each side 24 hours post-sensitization in the same manner as in Example 1. […] Immediately prior to elicitation, at 1 and 4 hours and on Days 1, 3 and 7 post-elicitation, auricle thickness was similarly measured. From each auricle edema (µm) based on the auricle thickness immediately prior to elicitation, especially a prophylactically therapeutic efficacy of the test compound was evaluated.
# Mice were sensitized with anti-DNP IgE Ab and then elicited by painting 0.1% DNFB in ethanol onto both sides of a pair of mouse auricles at a dose of 10 µL per each side 24 hours post-sensitization in the same manner as in Example 1. A solution of a test metalloproteinase inhibitor (Compound No. 8; 50 µg/ear/dose, twice a day) in ethanol was painted onto both sides of a pair of the mouse auricles 1 hour pre-elicitation, 0.25, 3, 4, 5 and 6 days post-elicitation (5 animals per group). Immediately prior to elicitation, at 0.5, 1 and 4 hours and on Days 1, 3 and 7 post-elicitation, auricle thickness was similarly measured. Each amount of auricle edemas was calculated (average± standard deviation). […]
# [3] = system: Experimental Bronchial Asthma Model; experiment: Experimental bronchial asthma model (ovalbumin-sensitized, airway resistance and asthmatic death); assay type: in vivo, Guinea pigs; conditions: for % Survival: asthmatic death within several minutes after elicitation
# Experimental: Guinea pigs (female, Std:Hartley, 3 weeks old, 200 to 250 g) were individually housed in a plastic chamber (width, 200 mm; depth, 300 mm; height, 167 mm). Aqueous ovalbumin (10 mg/mL) was administered to the guinea pigs once a day for sensitization by 10 min. inhalation with a nebulizer (5B, Nippon Shoji K.K.: flow rate, 6 L/min.) at a dose of 10 mg/mL during 8 cosecutive days. On Day 7 after the final sensitization, the guinea pigs were housed in a plastic chamber and inhaled using a nebulizer with a solution of ovalbumin (10 mg/mL) in physiological saline for 1 min. for elicitation (Matsumoto, T., et al., The Journal of Pharmacology and Experimental Therapeutics, 269: 1236-1244, 1994). The number of animals employed in the experiment was set to the extent there are at least 6 as individuals escaping asthmatic death. A solution of a test metalloproteinase inhibitor (Compound No. 8, 15 mg/kg) in water for injection was administered subcutaneously twice, i.e., 24 hours and 2 hours prior to elicitation. Similarly, the solvent alone was also administered to a negative control group. A suspension of prednisolone (10 mg/kg) in 0.5% aqueous methyl cellulose was administered orally twice, i.e., 24 hours and 2 hours prior to elicitation. Similarly, the solvent alone was also administered to another control group.
# The evaluation for efficacies was conducted in terms of airway resistance. For this purpose, an apparatus dedicated to the measurement of airway resistance (K.K. Medical Agent) was employed. Measurement includes setting a guinea pig in a test chamber under a not-anesthetized condition, applying sinusoidal pressure waves of 30 Hz components to a part below the neck of the animal from the back side of the chamber, measuring respiratory waves of 30 Hz components leaking through the mouth (volume of 30 Hz air flow passing through the respiratory tract) in front of the neck, and calculating airway resistance mechanically. Measurement was carried out immediately prior to the first drug treatment (24 hours before elicitation), just prior to elicitation, 10 minutes, 1, 2, 4, 6, and 8 hours post-elicitation.
# It was visually observed by a person carrying out said test in terms of the appearance of cyanosis or suffocative death (asthmatic death) due to respiratory obstruction.
# Guinea pigs were sensitized with ovalbumin and asthma was induced on Day 7 after final sensitization in the same manner as in Example 18. The number of animals employed in the experiment was set to the extent there are at least 6 as individuals escaping asthmatic death (8 to 11 animals/group). In the same manner as in Example 18, the animals were measured for airway resistance mechanically and each percent change (%) in airway resistance was calculated (each value just prior to elicitation was set as 100%). Each percent amelioration in airway resistance was calculated from the percent changes in airway resistance according to the following formula: Amelioration in Airway Resistance (%) = 1 -[((Percent Change in Airway Resistance after Drug-Administration)-(Value just prior to Challenge (100)))/((Percent Change in Airway Resistance after Solvent -Administration)-(Value just prior to Challenge (100)))]× 100 [formula]
# A solution of a test metalloproteinase inhibitor (Compound No. 22: 15 mg/kg or 30 mg/kg) in water for injection or the solvent alone as a negative control was administered to each animal subcutaneously twice, i.e., 24 hours and 2 hours prior to elicitation.
# [4] = Body weight gain in sensitized mice (experimental atopic dermatitis model); assay type: in vivo; conditions: painted on auricles twice a day; Compound No. 8 50 µg/ear/dose, prednisolone 5 µg/ear/dose; Days 1, 4 and 7; versus solvent control (ethanol)
# Experimental: Experimental atopic dermatitis model mice sensitized in the same manner as in Example 1 were examined for influence on body weight gains.
# A solution of a test metalloproteinase inhibitor (Compound No. 8; 50 µg/ear/dose, twice a day) in ethanol or a solution of prednisolone (5 µg/ear/dose, twice a day) in ethanol was administered to mice (5 animals per group) by painting onto both sides of a pair of the auricles, not only one hour prior to elicitation but also 0.25, 3, 4, 5 and 6 days post-elicitation. Each mouse was measured for its body weight not only immediately before the start in painting but also on Days 1, 4 and 7 after the start in painting. Each gain in body weight was calculated and considered to indicate an effect on body weight changes affected by said treatments.
# [5] = Compound No. 22 15 mg/kg s.c., prednisolone 10 mg/kg orally
# [6] = suffocative death due to cyanosis just after elicitation, Compound No. 8 15 mg/kg s.c., prednisolone 10 mg/kg orally, 24 and 2 hours prior to elicitation
Compound,"Body Weight Gain, Day 5 [1]","Body Weight Gain, Day 7 [1]","Body Weight Gain, Day 10 [1]","% Inhibition IPR ([2]; auricle edema 1 hour post-elicitation, treatment 24 & 2 hours prior to DNFB-elicitation)","% Inhibition LPR ([2]; auricle edema Day 1 post-elicitation, treatment 24 & 2 hours prior to DNFB-elicitation)","% Inhibition vLPR ([2]; auricle edema Day 7 post-elicitation, daily from 3 to 6 days after DNFB-elicitation)","% Amelioration in Airway Resistance, 1 Hour ([3]; 1 hour after elicitation, Compound No. 22 15 mg/kg s.c., prednisolone 10 mg/kg orally)","% Amelioration in Airway Resistance, 6 Hours ([3]; 6 hours after elicitation, Compound No. 22 15 mg/kg s.c., prednisolone 10 mg/kg orally)","% Amelioration in Airway Resistance, Immediately after Elicitation ([3]; Compound No. 22 15 mg/kg s.c., prednisolone 10 mg/kg orally, 24 and 2 hours prior to elicitation)","cyanosis ([3]; after elicitation, s.c. administration)","% Survival [3, 5]",gain in body weight (FIG. 9) [4],"% Mortality [3, 6]","(Dead Animals)/(Tested Animals) [3, 6]"
"CC(=O)O.CNC(=O)[C@H](Cc1ccc(CNC(C)=N)cc1)NC(=O)[C@H](CC(C)C)C(CCCc1ccccc1)C(=O)NO (single isomer, unassigned) [Compound No. 10, N-[4-(N-hydroxyamino)-2(R)-isobutyl-3(R or S)-(3-phenyltrimethylene)succinyl]-L-4'-acetimidoyliminomethylenephenylalanine-N-methylamide 1 acetate]",1.08± 0.39,1.62± 0.26,1.40± 0.30,38.2%,39.2%,44.7%,–,–,–,–,–,–,–,–
"CC(=O)O.CNC(=O)[C@H](Cc1ccc(NC(=N)N)cc1)NC(=O)[C@@H](CC(=O)NO)CC(C)C [Compound No. 22, N-[4-(N-hydroxyamino)-2(R)-isobutylsuccinyl]-L-4'-guanidophenylalanine-N-methylamide 1 acetate]",–,–,–,–,–,–,56.4%,102.2%,12.3%,moderation in cyanosis is also observed,88.9%,–,–,–
"C[C@]12C=CC(=O)C=C1CC[C@@H]1[C@@H]2[C@@H](O)C[C@@]2(C)[C@H]1CC[C@]2(O)C(=O)CO [Prednisolone, prednisolone, reference compound]",0.00± 0.26,0.03± 0.57,0.97± 0.47,–,–,–,–,–,–,–,75.0%,below that in the solvent control group,22.2%,2/9
